Columns and labels:
[1] = system: D. desulfuricans #ATCC27774; assay: Respiration rate (hydrogen gas uptake) with sulfate as electron acceptor; conditions: Desulfovibrio desulfuricans, ATCC27774, 4 h, pH 7, read-out: Gas Uptake (as percent of control)
[2] = system: D. desulfuricans #ATCC 27774; assay: Growth of different sulfate-reducers with 1,8-dihydroxyanthraquinone (Example 9); assay type: cell-based; conditions: 3 ppm, 40 hours; control .45
Description: (§1) Growth was monitored as optical density at 660 nm for 40 hours.

[3] = system: Desulfovibrio gigas; assay: Sulfide production by resting cells of D. gigas; assay type: cell-based
Description: Experiments in this example were carried out using resting cells of Desulfovibrio gigas rather than growing cells as was the case for the autoanalyzer system employing the Desulfovibrio desulfuricans G100A strain. […] Thus the experiment examined a different organism, different test system, and a different physiological state for the phenomenon of anthraquinone inhibition of sulfide production by Desulfovibrio sp. Active compounds, as determined by the autoanalyzer, were evaluated in comparison with four additional compounds not evaluated in the autoanalyzer.
500 ml cultures of Desulfovibrio gigas were grown on standard BTZ-3 medium as previously described in Example 1 with 30 mM sodium lactate, 30 mM sodium sulfate and 30 mM sodium fumarate. The culture was harvested after 24 h of growth at 31° C. by centrifugation at 8000 rpm in a GSA Sorvall rotor for 20 minutes. The cell pellet was resuspended in 30 ml of incubation assay mixture of the following composition: 50 mM HEPES buffer pH 7 buffer, 2.5 mM sodium lactate, 2.5 mM sodium sulfate. This suspension was centrifuged again at 10,000 rpm in a Sorvall SS-34 rotor for 5 minutes. The resulting cell pellet was resuspended in 5 ml of incubation assay buffer. Cell densities were generally near 10e10 cells/mi.
The samples were assayed for production in the presence of anthraquinones. 200 ul of the cell suspension was added to 1.2 ml of incubation assay mixture in a 5 ml capacity test tube. The tube was gassed with hydrogen gas for 20 minutes then the anthraquinones were added as ethanolic solutions, the tubes were then gassed with hydrogen again for 5 minutes. The reaction mixtures were then incubated for 3 hours at 31° C. The reactions were stopped by the addition of 200 ul of 1N sodium hydroxide. After 20 minutes the alkaline mixtures were centrifuged in a table top microfuge for 4 minutes at 14,000 rpm to remove cells and cell debris. The supernatant was then assayed for sulfide using the ferric chloride-DPD reagent system as described by Siegel et al., Anal. Blochem., 11:126-132, 1965, herein incorporated by reference.

[4] = system: D. desulfuricans G100A; assay: Effect of dithionite-reduced anthraquinones on growth of D. desulfuricans G100A; assay type: cell-based
Description: Three anthraquinones, 1,8-dihydroxy-, 1-chloro-, and 3-chloro-2-carboxy- were prepared as 1 ml of 1000 ppm solutions in acetone for the first two compounds or water for the third. These solutions were then treated with 1 mg of the strong reducing agent, sodium dithionite. 50 ul of each solution (for a final culture concentration of 5 ppm) was used immediately to treat growing cultures of D. desulfuricans G100A in BTZ-3 medium as defined in Example 1. The compounds were added to the 10 ml cultures at 15 h of growth.

[5] = system: D. desulfuricans Norway; assay: Growth of different sulfate-reducers with 1,8-dihydroxyanthraquinone (Example 7); assay type: cell-based; conditions: 3 ppm, 40 hours; control .30
Description: as §1

[6] = system: D. desulfuricans G100A; assay: Growth of different sulfate-reducers with 1,8-dihydroxyanthraquinone (Example 6); assay type: cell-based; conditions: 3 ppm, 40 hours; control >1.5
Description: as §1

[7] = system: D. salexigens; assay: Growth of different sulfate-reducers with 1,8-dihydroxyanthraquinone (Example 8); assay type: cell-based; conditions: 3 ppm, 40 hours; control >1.5
Description: as §1

[8] = system: B. aureus, B. subtilis, B. stearothermophilus and S. aureus; conditions: background art; cited from earlier work
[9] = system: D. vulgaris; assay: Growth of different sulfate-reducers with 1,8-dihydroxyanthraquinone (Example 10); assay type: cell-based; conditions: 3 ppm, 40 hours; control .20
Description: as §1

[10] = system: sulfate reducing bacteria (crude enrichments from various naturally-occuring environments); assay: Sulfide production by crude enrichments from naturally-occurring environments; assay type: cell-based; conditions: 5 ppm
Description: All samples were grown on standard BTZ-3 medium (as defined in Example 1) under hydrogen (80%) carbon dioxide (20%) with 10 mM acetate and 0.1% yeast extract. Mud samples were inoculated into this medium and allowed to grow for 24 h to enrich for sulfate reducing bacteria. A 1 ml aliquot of this enrichment was transferred to fresh medium and the sulfide evolved was measured over a three day period. Sulfide was assayed as described by Siegal, Anal. Biochem. 11: 126-132, 1965, herein incorporated by reference.

[11] = system: Escherichia coli strain MC106; assay: Aerobic and anaerobic growth of Escherichia coli; assay type: cell-based; conditions: 5 ppm
Description: Another non-sulfate reducing organism, Escherichia coli strain MC106 was grown under aerobic conditions on BTZ-3 with 30 mM sodium succinate as sole carbon and electron source with oxygen as electron acceptor or under anaerobic conditions with hydrogen (80% as electron donor) and carbon dioxide (20%) as gas phase and sodium fumarate (30 mM) as electron acceptor. Both media contained 0.2% yeast extract.
Aerobic growth with succinate refers to growth on succinate as a carbon and electron source and oxygen as an electron acceptor. Anaerobic growth under hydrogen/carbon dioxide refers to growth with hydrogen as an electron donor and fumarate as an electron acceptor.

[12] = system: D. multispirans; assay: Growth of different sulfate-reducers with 1,8-dihydroxyanthraquinone (Example 5); assay type: cell-based; conditions: 3 ppm, 40 hours; control >1.5
Description: as §1

## O=C1c2cccc(O)c2C(=O)c2c(O)cccc21 [1,8-Dihydroxyanthraquinone]
[1]
  activity at 0.6 ppm: 66%
  activity at 1.5 ppm: 45%
  activity at 3 ppm: 30%
[2]
  Optical Density @ 660 nm, treated: .08
[3]; Desulfovibrio, 0.1 ppm, 3 hours at 31° C.
  activity at 0.1 ppm: 101%
[3]; Desulfovibrio, 0.5 ppm, 3 hours at 31° C.
  activity at 0.5 ppm: 51%
[3]; Desulfovibrio, 2 ppm, 3 hours at 31° C.
  activity at 2 ppm: 4%
[3]; Desulfovibrio, 5 ppm, 3 hours at 31° C.
  activity at 5 ppm: 2.3%
[3]; resting cells
  inhibition of sulfide production (in words): inhibitory properties
[4]; 0 h, before addition of 5 ppm dithionite-reduced compound at 15 h, control 0.02
  Optical Density @ 660 nm: 0.02
[4]; 2 h, before addition of 5 ppm dithionite-reduced compound at 15 h, control 0.02
  Optical Density @ 660 nm: 0.02
[4]; 12 h, before addition of 5 ppm dithionite-reduced compound at 15 h, control 0.08
  Optical Density @ 660 nm: 0.10
[4]; 15 h, time of addition of 5 ppm dithionite-reduced compound, control 0.18
  Optical Density @ 660 nm: 0.2
[4]; 17 h, 5 ppm dithionite-reduced compound added at 15 h, control 0.26
  Optical Density @ 660 nm: 0.24
[4]; 20 h, 5 ppm dithionite-reduced compound added at 15 h, control 0.37
  Optical Density @ 660 nm: 0.23
[4]; 25 h, 5 ppm dithionite-reduced compound added at 15 h, control 0.50
  Optical Density @ 660 nm: 0.22
[4]; 30 h, 5 ppm dithionite-reduced compound added at 15 h, control 0.98
  Optical Density @ 660 nm: 0.23
[4]; 45 h, 5 ppm dithionite-reduced compound added at 15 h, control 1.50
  Optical Density @ 660 nm: 0.25
[5]
  Optical Density @ 660 nm, treated: .09
[6]
  Optical Density @ 660 nm, treated: .20
[7]
  Optical Density @ 660 nm, treated: .06
[8]
  antibacterial activity (in words): inactive
[9]
  Optical Density @ 660 nm, treated: .05
[10]
  inhibition of enrichments (in words): the majority of enrichments from natural sources were inhibited
[10]; SM-Lewes (Lewes saltmarsh), control 6.4
  sulfide production, treated: 4.5 umol sulfide/day
[10]; VF-A2 (Valley Garden Park, aerobic), control 64.0
  sulfide production, treated: -11.0 umol sulfide/day
[10]; VF-A (Valley Garden Park, aerobic), control 24.0
  sulfide production, treated: -2.0 umol sulfide/day
[10]; VF-AN (Valley Garden Park, anaerobic), control 67.0
  sulfide production, treated: 2.8 umol sulfide/day
[10]; VS-A (Valley Stream State Park, aerobic), control 49.0
  sulfide production, treated: -1.0 umol sulfide/day
[10]; VS-AN2 (Valley Stream State Park, anaerobic), control 116.0
  sulfide production, treated: 0.0 umol sulfide/day
[10]; VS-AN (Valley Stream State Park, anaerobic), control 12.0
  sulfide production, treated: -4.0 umol sulfide/day
[10]; WADS (Wilmington anaerobic digestor), control 106.7
  sulfide production, treated: 71.0 umol sulfide/day
[10]; WCC-A1 (White Clay Creek Preserve, aerobic), control 411.0
  sulfide production, treated: 67.0 umol sulfide/day
[10]; WCC-A2 (White Clay Creek Preserve, aerobic), control 388.0
  sulfide production, treated: 49.0 umol sulfide/day
[10]; WCC-AN1 (White Clay Creek Preserve, anaerobic), control 345.0
  sulfide production, treated: 80.0 umol sulfide/day
[10]; WCC-AN2 (White Clay Creek Preserve, anaerobic), control 288.0
  sulfide production, treated: 37.0 umol sulfide/day
[11]
  inhibition of aerobic or anaerobic growth (in words): virtually no inhibition
[11]; aerobic growth with succinate, 0 h, control 0.01
  Optical Density @ 660 nm: 0.01
[11]; aerobic growth with succinate, 5.5 h, control 0.17
  Optical Density @ 660 nm: 0.24
[11]; aerobic growth with succinate, 6.5 h, control 0.37
  Optical Density @ 660 nm: 0.39
[11]; aerobic growth with succinate, 7.5 h, control 0.38
  Optical Density @ 660 nm: 0.40
[11]; aerobic growth with succinate, 24 h, control 1.50
  Optical Density @ 660 nm: 1.50
[11]; anaerobic growth under hydrogen/carbon dioxide, 0 h, control 0.0
  Optical Density @ 660 nm: 0.01
[11]; anaerobic growth under hydrogen/carbon dioxide, 3.5 h, control 0.30
  Optical Density @ 660 nm: 0.29
[11]; anaerobic growth under hydrogen/carbon dioxide, 4.5 h, control 0.45
  Optical Density @ 660 nm: 0.62
[11]; anaerobic growth under hydrogen/carbon dioxide, 5.5 h, control 0.61
  Optical Density @ 660 nm: 0.79
[11]; anaerobic growth under hydrogen/carbon dioxide, 6.0 h, control 0.75
  Optical Density @ 660 nm: 0.87
[12]
  Optical Density @ 660 nm, treated: .28

— patent US5385842A, “Anthraquinones as inhibitors of sulfide production from sulfate-reducing bacteria” (E. I. Du Pont de Nemours and Company, priority 1993, dated 1995)
